A value given as a limit tells only on which side of the number the result lay.

For test [1], the target named is T1, FASN Keto-reductase Domain (Homo sapiens, UniProt P49327).
T1 construct: 10 μL hFASN enzyme (full length, 300 ng, purified in house) and 360 μM NADPH; made in house
The experiment in a line: Fatty Acid Synthase Keto-Reductase Domain (FASN KR) Inhibition. The format is biochemical. Conditions: mean where tested more than once; read-out: FASN K-R Domain pIC50 (converted). The essentials:
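Keto-reductase activity followed as NADPH consumption (A340 drop between 0 and 20 min, room temperature) using in-house full-length hFASN, 360 μM NADPH and ethyl acetoacetate substrate (180 mM stock), pH 7.5 phosphate buffer.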

The test system of test [2] is A2780 ovarian cells. The experiment in a line: A2780 Ovarian Cell Proliferation Assay in Lipid Reduced Medium, without Palmitate. The format is cell-based. Conditions: Homo sapiens, A2780; lipid reduced medium, without palmitate, 96 h, MTT; read-out: Proliferation A2780 w/o Palmitate pIC50 (converted). The essentials:
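A2780 cells were seeded in 10% FCS medium and switched next day to 10% lipid-reduced serum without palmitate. Compounds at 0.01–30 μM were added with 0.2% DMSO, 0.2% fatty-acid-free BSA and 0.25% ethanol final. After 96 h, MTT absorbance at 544 nm was normalized to plate controls, and IC50/pIC50 came from a 4-parameter logistic fit.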

In test [3] the test system is A2780 ovarian cells. Put plainly: A2780 Ovarian Cell Proliferation Assay in Lipid Reduced Medium, with Palmitate (control). To be noted: Homo sapiens, A2780; lipid reduced medium, 25 μM palmitate, 96 h, MTT; read-out: Proliferation A2780 with Palmitate pIC50 (converted). The class given is cell-based. The essentials: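 Read-out was MTT absorbance at 544 nm after 96 h at 37 °C. Cells grown overnight in RPMI1640/10% FCS were moved to 10% lipid-reduced serum with compound plus palmitate (final 25 μM, 0.2% fatty-acid-free BSA, 0.2% DMSO). IC50 came from least-squares curve fitting, expressed as −log(IC50).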

The target of test [4] is T2, hFASN enzyme (full length) (Homo sapiens, UniProt P49327).
T2 construct: 10 μL hFASN enzyme (full length, 300 ng, purified in house); made in house
The experiment in a line: Fatty Acid Synthase (FASN) Inhibition Scintillation Proximity Assay. The format is biochemical. To be noted: for IC50: mean where tested more than once, ~ = standard error of pIC50 larger than 0.5; for inhibition at 10 µM: read-out: FASN % Effect @1E−05M. The method in brief: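 Eight compound concentrations (0.01–30 μM) tested in pH 7.5 phosphate buffer with DTT; human full-length enzyme converted [3H]-acetyl-CoA plus malonyl-CoA, with NADPH, over 60 min at room temperature. Hydrophobic [3H]-palmitate detected by bead proximity scintillation imaging; control-normalised data fitted for IC50/pIC50.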
A general note: Scintillation proximity formats need no separation of bound from free tracer.

T2 sequence (P49327 whole entry): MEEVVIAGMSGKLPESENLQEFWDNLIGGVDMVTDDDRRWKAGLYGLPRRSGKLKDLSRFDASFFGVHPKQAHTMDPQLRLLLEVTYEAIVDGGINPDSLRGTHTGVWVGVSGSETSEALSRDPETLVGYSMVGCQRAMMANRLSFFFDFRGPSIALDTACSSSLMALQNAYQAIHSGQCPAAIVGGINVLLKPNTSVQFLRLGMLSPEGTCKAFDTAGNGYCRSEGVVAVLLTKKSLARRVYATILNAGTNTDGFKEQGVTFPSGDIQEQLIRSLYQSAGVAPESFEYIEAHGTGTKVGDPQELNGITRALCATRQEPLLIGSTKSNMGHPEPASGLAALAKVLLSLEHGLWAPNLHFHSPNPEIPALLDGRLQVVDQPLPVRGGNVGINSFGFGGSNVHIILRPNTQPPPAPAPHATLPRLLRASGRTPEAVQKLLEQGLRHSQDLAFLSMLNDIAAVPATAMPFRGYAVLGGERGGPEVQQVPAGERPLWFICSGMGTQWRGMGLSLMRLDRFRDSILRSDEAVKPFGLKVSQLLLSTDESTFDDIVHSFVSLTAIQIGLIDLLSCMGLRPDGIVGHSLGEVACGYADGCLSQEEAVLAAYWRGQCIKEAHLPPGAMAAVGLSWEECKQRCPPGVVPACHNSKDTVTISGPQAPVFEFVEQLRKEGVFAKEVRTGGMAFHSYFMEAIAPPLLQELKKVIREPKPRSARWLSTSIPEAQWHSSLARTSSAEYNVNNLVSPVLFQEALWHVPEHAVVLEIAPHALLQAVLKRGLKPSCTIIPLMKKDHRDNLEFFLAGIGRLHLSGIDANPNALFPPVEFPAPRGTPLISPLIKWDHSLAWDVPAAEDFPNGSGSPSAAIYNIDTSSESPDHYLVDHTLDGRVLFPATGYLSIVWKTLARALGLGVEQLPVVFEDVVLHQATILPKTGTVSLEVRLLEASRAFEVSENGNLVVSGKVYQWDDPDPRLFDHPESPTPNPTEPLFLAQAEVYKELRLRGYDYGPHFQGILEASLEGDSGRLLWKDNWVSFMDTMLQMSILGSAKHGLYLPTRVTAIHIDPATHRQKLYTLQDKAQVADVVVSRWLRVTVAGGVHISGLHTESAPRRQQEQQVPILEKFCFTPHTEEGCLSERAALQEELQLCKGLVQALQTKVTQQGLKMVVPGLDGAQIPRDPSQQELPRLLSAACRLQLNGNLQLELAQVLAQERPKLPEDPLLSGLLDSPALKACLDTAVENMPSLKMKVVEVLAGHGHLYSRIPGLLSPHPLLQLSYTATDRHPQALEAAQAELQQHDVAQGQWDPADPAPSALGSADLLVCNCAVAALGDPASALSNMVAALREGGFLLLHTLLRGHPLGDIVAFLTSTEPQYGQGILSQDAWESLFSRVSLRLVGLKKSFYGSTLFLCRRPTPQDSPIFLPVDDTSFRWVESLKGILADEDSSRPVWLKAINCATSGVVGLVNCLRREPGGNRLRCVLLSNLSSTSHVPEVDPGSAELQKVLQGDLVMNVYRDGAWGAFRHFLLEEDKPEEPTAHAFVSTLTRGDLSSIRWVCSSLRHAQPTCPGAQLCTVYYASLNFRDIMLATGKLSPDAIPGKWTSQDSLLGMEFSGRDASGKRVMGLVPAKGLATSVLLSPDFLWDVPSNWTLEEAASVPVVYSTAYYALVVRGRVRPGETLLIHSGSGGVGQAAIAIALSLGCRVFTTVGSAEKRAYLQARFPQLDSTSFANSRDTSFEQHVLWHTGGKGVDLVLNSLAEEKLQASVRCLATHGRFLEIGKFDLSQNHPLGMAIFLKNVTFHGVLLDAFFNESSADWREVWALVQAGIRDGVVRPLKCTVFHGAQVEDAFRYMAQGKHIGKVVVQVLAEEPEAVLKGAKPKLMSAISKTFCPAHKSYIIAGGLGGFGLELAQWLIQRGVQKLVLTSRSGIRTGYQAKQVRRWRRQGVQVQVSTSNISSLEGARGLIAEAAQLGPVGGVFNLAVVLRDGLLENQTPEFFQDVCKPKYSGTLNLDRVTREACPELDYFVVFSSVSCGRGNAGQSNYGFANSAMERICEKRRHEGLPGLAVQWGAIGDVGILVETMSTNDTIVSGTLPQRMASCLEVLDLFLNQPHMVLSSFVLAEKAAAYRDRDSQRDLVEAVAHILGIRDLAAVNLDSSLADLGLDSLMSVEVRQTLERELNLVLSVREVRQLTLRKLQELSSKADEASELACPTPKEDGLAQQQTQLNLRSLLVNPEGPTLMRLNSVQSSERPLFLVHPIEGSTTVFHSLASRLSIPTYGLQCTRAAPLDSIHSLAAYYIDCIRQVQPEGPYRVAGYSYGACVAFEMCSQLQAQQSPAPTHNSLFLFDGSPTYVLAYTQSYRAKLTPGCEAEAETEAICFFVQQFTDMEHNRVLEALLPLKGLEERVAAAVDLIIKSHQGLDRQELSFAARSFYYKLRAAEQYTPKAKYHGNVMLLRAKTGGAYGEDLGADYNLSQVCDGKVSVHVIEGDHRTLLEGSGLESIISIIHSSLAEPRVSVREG
T1 sequence (P49327 whole entry, the tested form may be a part): as the sequence (P49327 whole entry) above

Consider `CCCCCCN1CCC(C(=O)Nc2cc(C(=O)N3CCC(c4ccc(-c5cnn(C)c5)cc4)CC3)ccc2C)CC1` [Compound 216], for which the IC50 in test [1] is 91.2 nM; in the test on A2780 ovarian cells [2], 43.7 nM; with A2780 ovarian cells [3] it was 5620 nM; in test [4], 36.3 nM. For the same compound, the inhibition at 10 µM in test [4] is 113%.
The matching figures for `Cc1ccc(C(=O)N2CCC(c3ccc4[nH]c(=O)sc4c3)CC2)cc1NC(=O)c1ccc(Cl)nc1` [Compound 48, 6-chloro-N-(2-methyl-5-(4-(2-oxo-2,3-dihydrobenzo[d]thiazol-6-yl)piperidine-1-carbonyl)phenyl)nicotinamide]: 457 nM, 1410 nM, more than 10000 nM, 269 nM and 92%.
The matching figures for `Cc1ccc(C(=O)N2CCC(c3ccc(-c4cnn(C)c4)cc3)C2)cc1NC(=O)c1ccc(Cl)nc1` (stereo not shown) [Compound 203, 6-chloro-N-(2-methyl-5-(3-(4-(1-methyl-1H-pyrazol-4-yl)phenyl)pyrrolidine-1-carbonyl)phenyl)nicotinamide]: 977 nM, 372 nM, more than 10000 nM, 282 nM and 97%.
The matching figures for `CCCN1CC(C(=O)Nc2cc(C(=O)N3CCC(c4ccc(-c5cnn(C)c5)cc4)CC3)ccc2C)C1` [Compound 208, N-(2-methyl-5-(4-(4-(1-methyl-1H-pyrazol-4-yl)phenyl)piperidine-1-carbonyl)phenyl)-1-propylazetidine-3-carboxamide]: 631 nM, 275 nM, more than 10000 nM, 269 nM and 101%.
Turning to `Cc1ccc(C(=O)N2CCC(c3ccc(-c4cnn(C(C)C)c4)cc3)CC2)cc1NC(=O)c1ccc(NC(C)C)nc1` [Compound 247, N-(5-(4-(4-(1-isopropyl-1H-pyrazol-4-yl)phenyl)piperidine-1-carbonyl)-2-methylphenyl)-6-(isopropylamino)nicotinamide], the IC50 in test [1] is 91.2 nM; in the test with A2780 ovarian cells [2], 38.9 nM; with A2780 ovarian cells [3], 6170 nM; in test [4], 33.9 nM. In addition, in test [4], the inhibition at 10 µM was 112%.
The matching figures for `Cc1ccc(C(=O)N2CC(c3ccc(-c4cccc5ncccc45)cc3)C2)cc1NC(=O)c1ccc(NC(C)C)nc1` [Compound 12, 6-(isopropylamino)-N-(2-methyl-5-(3-(4-(quinolin-5-yl)phenyl)azetidine-1-carbonyl)phenyl)nicotinamide]: 22.9 nM, 49 nM, 2240 nM, 38.9 nM and 111%.
As for `Cc1ccc(C(=O)N2CC(c3ccc(-c4cnn(C)c4)cc3)C2)cc1NC(=O)c1cnc(NC(C)C)nc1` [Compound 158, 2-(isopropylamino)-N-(2-methyl-5-(3-(4-(1-methyl-1H-pyrazol-4-yl)phenyl)azetidine-1-carbonyl)phenyl)pyrimidine-5-carboxamide], the IC50 in test [1] was 37.2 nM; in the test with A2780 ovarian cells [2], 10 nM; in the test on A2780 ovarian cells [3], more than 10000 nM; in test [4], 23.4 nM. For the same compound, in test [4], the inhibition at 10 µM was 102%.
The matching figures for `CCN1CCC(C(=O)Nc2cc(C(=O)N3CCC(c4ccc(-c5cnn(C)c5)cc4)CC3)ccc2C)CC1` [Compound 168, 1-ethyl-N-(2-methyl-5-(4-(4-(1-methyl-1H-pyrazol-4-yl)phenyl)piperidine-1-carbonyl)phenyl)piperidine-4-carboxamide]: 126 nM, 72.4 nM, more than 10000 nM, 61.7 nM and 113%.
The matching figures for `Cc1ccc(C(=O)N2CCC(c3ccc(-c4cnn(C)c4)cc3)CC2)cc1NC(=O)C1CN(CC(C)(C)C)C1` [Compound 190, N-(2-methyl-5-(4-(4-(1-methyl-1H-pyrazol-4-yl)phenyl)piperidine-1-carbonyl)phenyl)-1-neopentylazetidine-3-carboxamide]: 251 nM, 257 nM, more than 10000 nM, 74.1 nM and 102%.
The matching figures for `CC(C)Nc1ccc(C(=O)Nc2cc(C(=O)N3CCC(c4ccc(-c5cnn(C)c5)cc4)CC3)ccc2O)cn1` [Compound 269, N-(2-hydroxy-5-(4-(4-(1-methyl-1H-pyrazol-4-yl)phenyl)piperidine-1-carbonyl)phenyl)-6-(isopropylamino)nicotinamide]: 257 nM, 316 nM, 7240 nM, 69.2 nM and 107%.
In the case of `Cc1cccc(-c2ccc(C3CCN(C(=O)c4ccc(C)c(NC(=O)c5ccc(NC(C)C)nc5)c4)CC3)cc2)c1` [Compound 233, 6-(isopropylamino)-N-(2-methyl-5-(4-(3′-methyl-[1,1′-biphenyl]-4-yl)piperidine-1-carbonyl)phenyl)nicotinamide], the IC50 in test [1] is 776 nM; with A2780 ovarian cells [2], 759 nM; with A2780 ovarian cells [3], 955 nM; in test [4], 575 nM. For the same compound, the inhibition at 10 µM in test [4] was 72%.
The matching figures for `Cc1ccc(C(=O)N2CCC(c3ccc(-c4cnn(C)c4)cc3)CC2)cc1NC(=O)c1cnc(NC2CCC2)nc1` [Compound 162, 2-(cyclobutylamino)-N-(2-methyl-5-(4-(4-(1-methyl-1H-pyrazol-4-yl)phenyl)piperidine-1-carbonyl)phenyl)pyrimidine-5-carboxamide]: 32.4 nM, 8.13 nM, approximately 7590 nM, 20 nM and 101%.
Consider `Cc1ccc(C(=O)N2CCC(c3ccc(-c4cnn(C)c4)cc3)CC2)cc1NC(=O)C(C)C` [Compound 156, N-(2-methyl-5-(4-(4-(1-methyl-1H-pyrazol-4-yl)phenyl)piperidine-1-carbonyl)phenyl)isobutyramide], for which the IC50 was 263 nM in test [1], 275 nM with A2780 ovarian cells [2], more than 10000 nM in the test with A2780 ovarian cells [3] and 107 nM in test [4]. Further, the inhibition at 10 µM in test [4] turned out to be 100%.
The matching figures for `Cc1ccc(C(=O)N2CCC(c3ccc(-c4cnn(-c5ccncc5)c4)cc3)CC2)cc1NC(=O)c1ccc(NC(C)C)nc1` [Compound 272, 6-(isopropylamino)-N-(2-methyl-5-(4-(4-(1-(pyridin-4-yl)-1H-pyrazol-4-yl)phenyl)piperidine-1-carbonyl)phenyl)nicotinamide]: 105 nM, 43.7 nM, 1380 nM, 29.5 nM and 112%.
The matching figures for `Cc1ccc(C(=O)N2CCC(c3ccc(-c4cn(C)nc4C)cc3)CC2)cc1NC(=O)c1ccc(NC(C)C)nc1` [Compound 245, N-(5-(4-(4-(1,3-dimethyl-1H-pyrazol-4-yl)phenyl)piperidine-1-carbonyl)-2-methylphenyl)-6-(isopropylamino)nicotinamide]: 75.9 nM, approximately 31.6 nM, more than 10000 nM, 33.9 nM and 108%.
Take `Cc1ccc(C(=O)N2CCC(c3ccc(-c4cnn(C)c4)cc3)CC2)cc1NC(=O)C1CN(C(=O)C2CC2)C1` [Compound 219, 1-(cyclopropanecarbonyl)-N-(2-methyl-5-(4-(4-(1-methyl-1H-pyrazol-4-yl)phenyl)piperidine-1-carbonyl)phenyl)azetidine-3-carboxamide]: the IC50 in test [1] is 200 nM; in the test with A2780 ovarian cells [2], 234 nM; in the test on A2780 ovarian cells [3] it was more than 10000 nM; in test [4], 64.6 nM. For the same compound, in test [4], the inhibition at 10 µM amounted to 116%.
The matching figures for `Cc1ccc(C(=O)N2CC(c3ccc(-c4ccc5cnn(C)c5c4)cc3)C2)cc1NC(=O)c1ccc(NC(C)C)nc1` [Compound #36, 6-(isopropylamino)-N-(2-methyl-5-(3-(4-(1-methyl-1H-indazol-6-yl)phenyl)azetidine-1-carbonyl)phenyl)nicotinamide]: 27.5 nM, approximately 74.1 nM, 2190 nM, 43.7 nM and 106%.

The values above are taken from patent US9562035B2, “Benzamide derivative useful as FASN inhibitors for the treatment of cancer” (Janssen Pharmaceutica NV, priority 2013, dated 2017).
